Literature values, collected in patent US20110171717A1, “METHOD FOR ENHANCING […]” (priority 2006, published 2011).

Test system: polymerase
Settings: cited from earlier work; for effect on polymerase activity: known from Weyant et al., BioTechniques 1990

Molecule | effect on polymerase activity | effect on polymerase activity at low concentration (e.g., 0.01% of SDS)
CCCCCCCCCCCC(=O)N(C)CC(=O)[O-].[Na+] [sodium N-lauroyl sarcosinate, N-Lauroylsarcosine-sodium salt] | inhibit a polymerase activity | –
Sodium deoxycholate | inhibit a polymerase activity | –
CCCCCCCCCCCCOS(=O)(=O)[O-].[Na+] [SDS, Sodium dodecyl sulfate] | inhibit a polymerase activity | inhibit a polymerase activity even at low concentrations
